The source of these data is PubChem BioAssay (NCI).

Structures are written as SMILES. “And” between values parts separate entries of the source, which are not always exact repeats. Equal values may be shown once.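 The compound was tested at five concentrations on cells cultured in 96-well plates, with a 48-hour exposure period. GI50 = concentration required for 50% inhibition of growth. Definition used: TGI = concentration required for complete inhibition of growth.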 A value given as a limit tells only on which side of the number the result lay.

What all share (assay): growth of human tumour cells (NCI), 48 h
The test system of assay [1] is M14 melanoma.
Assay [2] relates to A549 NSCLC.
The subject of assay [3] is HL-60(TB) leukemia.
In assay [4] the test system is CCRF-CEM leukemia.
Assay [5] concerns BT-549 breast.
Assay [6] has as its system HT29 colon.
Assay [7] relates to UACC-62 melanoma.
Assay [8] relates to RXF 393 renal.
Assay [9] deals with OVCAR-4 ovarian.
Assay [10] concerns SN12C renal.

With `CCOCC1(COCC)CCC(c2[nH]ncc2CN(C)CCNC)CC1`, the GI50 is above 100 µM in assay [1]; above 100 µM in [2]; above 100 µM in [3]; above 100 µM in assay [4]; above 100 µM in [5]; 33.3 µM in assay [6]. Further, the GI50 in assay [7] is above 100 µM; in assay [8], 65.2 µM; in assay [9], above 100 µM; in assay [10], above 100 µM. Further, the TGI in assay [1], in assay [2], in [3], in assay [4], in [5] and in [6] was above 100 µM in each case. For the same compound, the TGI in [7], in assay [8], in assay [9] and in assay [10] was above 100 µM throughout.

As for `C=C1C(=O)O[C@H]2[C@H]1CC/C(COC(=O)c1cc(OC)c(OC)c(OC)c1)=C\CC[C@@]1(C)O[C@@H]21`, the GI50 in assay [1] was 1.27 µM; in assay [2], 3.05 µM; in assay [3] it was 0.711 µM; in [4], 0.293 µM; in [5], 1.06 µM; in [6] it was 0.441 µM. In addition, the GI50 was 1.18 µM in assay [7], 0.299 µM in [8], 2.09 µM in assay [9] and 1.24 µM in assay [10]. The TGI in assay [1] worked out at 3.05 µM; in [2], 12.1 µM; in assay [3], 2.95 µM; in [4], 2.28 µM; in [5], 2.35 µM; in [6], 2.09 µM. For the same compound, the TGI came out at 2.67 µM in assay [7], 1.27 µM in assay [8], 6.11 µM in assay [9] and 3.12 µM in [10].

For the compound `CC(=O)OCC1OC(n2c(=S)n(-c3ccc([N+](=O)[O-])cc3)c(=O)c3ccccc32)C(OC(C)=O)C(OC(C)=O)C1OC(C)=O` (stereo unspecified), the GI50 in assay [1] was 16 µM and 30.7 µM; in assay [2], 23.1 µM and 32 µM; in assay [3] it was 4.13 µM and 25.2 µM; in assay [4], 5.11 µM and 15.4 µM; in assay [7], 17.6 µM; in assay [8] it was 4.61 µM and 14.3 µM. In addition, the TGI in [1] was 48.8 µM and > 100 µM; in assay [2] it was above 100 µM; in assay [3], 29.4 µM and 59.1 µM; in assay [4], 96.9 µM and > 100 µM; in [5], 26.7 µM; in [6], above 100 µM. Besides, the TGI in [7] is 34 µM and 40.7 µM; in assay [8], 17.1 µM and 29.6 µM; in assay [9] it was 60.3 µM and 40.9 µM; in assay [10], 70.1 µM and 44.4 µM.

On to `CC(=O)Nc1ccc(C(=O)CCl)cc1`, for which the GI50 in [1] was 2.56 µM; in assay [2], 18.9 µM; in assay [3], 2.4 µM; in [4], 2.41 µM; in assay [5], 4.94 µM; in assay [6] it was 2.45 µM. For the same compound, the GI50 is 8.3 µM in [7], 3.41 µM in [8], 2.07 µM in assay [9] and 5.35 µM in [10]. Besides, the TGI in assay [1] amounted to 7.38 µM; in [2], 39.2 µM; in [3], 5.86 µM; in [4], 7.51 µM; in assay [5], 17.1 µM; in [6], 5.04 µM. Further, the TGI in assay [7] worked out at 21.6 µM; in assay [8], 11.6 µM; in assay [9] it was 4.06 µM; in assay [10], 19.2 µM.

Turning to `NS(=O)(=O)c1ccc(Nc2cc(-c3ccc(O)c(F)c3)[nH]n2)cc1`, the GI50 is 15.4 µM in [1]; above 25 µM in assay [2]; above 25 µM in assay [3]; 13.5 µM in assay [4]; 8.66 µM in [5]; above 25 µM in assay [6]. In addition, the GI50 in [7] was above 25 µM; in assay [8], above 25 µM; in [9] it was 8.8 µM; in assay [10], above 25 µM. For the same compound, the TGI in assay [1], in assay [2], in assay [3], in assay [4], in assay [5] and in [6] was above 25 µM throughout. Moreover, the TGI in assay [7], in [8], in [9] and in [10] was above 25 µM throughout.

Turning to `CC(C)(C)c1cc(C(=O)Nc2ccccc2C(=O)NCCN)cc(C(C)(C)C)c1`, the GI50 in [1] is 1.91 µM; in assay [2] it was 2.11 µM; in [3], 2.15 µM; in [4], 2.5 µM; in assay [5] it was 2.33 µM; in assay [6], 1.84 µM. In addition, the GI50 is 1.83 µM in [7], 2.01 µM in assay [8], 1.89 µM in assay [9] and 1.97 µM in assay [10]. Besides, the TGI in [1] stood at 3.64 µM; in assay [2] it was 4.2 µM; in [3] it was 4.46 µM; in [4] it was 6.36 µM; in assay [5], 5.84 µM; in assay [6], 3.59 µM. Besides, the TGI in assay [7] is 3.44 µM; in [8], 3.58 µM; in [9], 3.82 µM; in assay [10], 3.97 µM.
